{
  "source": "patent US20090263852A1",
  "about": "“NONAPOPTOTIC FORMS OF CELL DEATH AND METHODS OF MODULATION” (priority 2000, published 2009)",
  "key": {"[1]": {"system": "IGFIR-IC transfected 293T cells", "test": "IGFIR-IC-induced cell death (paraptosis) in transfected 293T cells, trypan blue exclusion", "format": "cell-based", "set-up": "inhibition of IGFIR-IC-induced cell death: dose or concentration left out as unconfirmed", "details": "for IGFIR-induced cell death following drug treatment: drug added 8.5 hrs after transfection, removed after 12 hrs, floating dead cells counted 24 hrs later with trypan blue", "experimental": "Transient transfections used Lipofect-Amine (GIBCO, BRL, Rockville, Md.) according to the manufacturer's instructions. Briefly, 1×10^6 293T cells were seeded in 6 cm dishes, and transfected the next day using a ratio of DNA:Lipofect-Amine of 1 μg:5 μl.\n(§1) Following expression of the IGIFR-IC constructs, the cell cultures were assayed for cell death. Cell death was assessed by trypan blue exclusion. Floating cells were collected at the indicated times after transfection, by centrifugation for 10 minutes at 1500 rpm. The cell pellet was subsequently resuspended in 50 μl of PBS, to which 50 μl of trypan blue was added. Dead cells were counted by 4 independent hemocytometer counts.\nBriefly, caspase inhibitor BAF was added to pIGFIR-IC transfected 293T cells at a concentration of […]. In addition, 293T cells were cotransfected with […] of pIGFIR-IC and […] of either pcDNA3 or pxiap or pBcl-xL. […] BAF and zVAD.fmk were obtained from Enzyme System Products (Livermore, Calif.).\nTo assess IGFIR-induced cell death following treatment with Actinomycin D and cycloheximide, both drugs were obtained form Sigma and added to IGFIR-IC transfected 293T cells. Briefly, 293T cells were transfected as described above and 8.5 hours after the beginning of transfection the drugs were added at the indicated concentrations. The drugs were subsequently removed after 12 hours and the cells were fed with fresh medium. Floating cells were collected 24 hrs after the removal of the drugs and dead cells were counted in the presence of trypan blue.\nTo assess whether caspase-9 has a functional role in IGFIR-induced cell death 293T cells were transfected with 2 μg of DNA consisting of either pcDNA3, 0.5 μg pIGFIR-IC+1.5 μg pcDNA3 (Invitrogen, Carlsbad, Calif.), or 0.5 μg pIGFIR-IC+1.5 μg dominant negative caspase-9 (pC9DN) or dominant negative caspase-7 (pC7DN) expression constructs. 48 hours after transfection, dead cells were counted."}, "[2]": {"system": "293T cells transfected with pro-caspase-9 (pC9)", "test": "caspase-9 induced cell death in transfected 293T cells", "format": "cell-based", "experimental": "(§2) In panel (A) 293T cells were transfected with the indicated pcDNA3-based caspase zymogen expression constructs. The general caspase inhibitor BAF was added at 50 μM final concentration. Cell death was assayed 48 hours after transfection. […] Asterisks indicate a highly significant difference from the control as determined by one-way ANOVA analysis (F=34.624, P<0.0001), P<0.0001 for pC9, P=0.0002 for pC7, and P=0.0001 for pC9+BAF (Bonferroni/Dunn post-hoc test). Error bars represent the SEM from three independent experiments. […] Cells were photographed 24 hours after transfection. […] BAF. […] Cells were stained as described in FIG. 2C. Panel (E) Electron micrograph of 293T cells transfected with an expression construct for pro-caspase-9 in the presence of. zVAD.fmk (40 μM). Morphology similar to IGFIR-IC-induced cell death was observed, including cytoplasmic vacuolation and the absence of chromatin condensation, nuclear fragmentation, and apoptotic body formation. Original magnification: 6000×.\nas §1, with “The cell pellet was subsequently resuspended in 50 μl of PBS, to which 50 μl of trypan blue was added.” left out, “counts. […]” for “counts.”"}, "[3]": {"system": "293T cells transfected with pro-caspase expression constructs", "test": "Internucleosomal DNA fragmentation of 293T cells transfected with pro-caspase expression constructs", "format": "cell-based", "details": "50 μM BAF", "experimental": "as §2\nSince one of the defining features of apoptotic cell death is the fragmentation of chromatin, genome integrity was assayed by agarose gel electrophoresis. Oligonucleosomal DNA fragmentation was assessed by extraction of soluble DNA from 3×10^6 transfected cells as by Frisch and Francis, Journal of Cell Biology 124:619-626 (1994), which is incorporated herein by reference."}, "[4]": {"system": "293T cells transfected with caspase-7 zymogen expression construct", "test": "caspase-7 induced cell death in transfected 293T cells", "format": "cell-based", "details": "50 μM final concentration, 48 hours after transfection", "experimental": "as §2\nas §1, with “The cell pellet was subsequently resuspended in 50 μl of PBS, to which 50 μl of trypan blue was added.” left out, “counts. […]” for “counts.”"}, "Apoptosis": {"system": "Apoptosis", "details": "Table 1, Comparison of Apoptosis, Necrosis and Paraptosis; cited from earlier work"}},
  "note": "Starred links: 1 amine or outer side, 2 acyl side, 3 side chain; linkers in the order of their positions; H or OH if unused. Positions of bridges follow the written chain, without caps; N, C: chain ends. Non-standard residues stand in square brackets, D forms with d. Residues, ends and D or L forms follow the SMILES beside them. Chains are numbered I, II in the order given. Actinocin(9to1) = Cc1c2oc3c(C)ccc(C(=O)[*:1])c3nc-2c(C(=O)[*:2])c(N)c1=O; NMeV = CN[C@H](C(=O)O)C(C)C; Sar = CNCC(=O)O",
  "data": [
    {"smiles": "CC[C@H]1/C=C/C=C/C[C@@H](C)[C@H](O)[C@@](C)(O)C(=O)[C@@H](C)[C@H](O)[C@@H](C)C(=O)[C@@H](C)[C@H](O)[C@@H](C)/C=C/C(=O)O[C@@H]2[C@H](C)[C@H](CC1)O[C@]1(CC[C@H](C)[C@H](C[C@@H](C)O)O1)[C@H]2C", "note": "[oligomycin]", "values": [
      {"measurement": "block of IGFIR-induced cell death phenotype", "setting": "[1]; 100 ng/ml", "value": "blocked the phenotype"}
    ]},
    {"smiles": "COC(=O)C[C@H](NC(=O)OC(C)(C)C)C(=O)CF", "note": "[BAF, t-butyloxycarbonyl-Asp (O-methyl)-fluoromethyl ketone]", "values": [
      {"measurement": "morphology of pro-caspase-9 transfected cells, light microscopy", "setting": "[2]; 50 μM BAF, 24 hours after transfection", "value": "suppressed the apoptotic phenotype"},
      {"measurement": "inhibition of caspase-9 induced cell death", "setting": "[2]; 50 μM final concentration, 48 hours after transfection", "value": 30, "unit": "%"},
      {"measurement": "inhibition of IGFIR-IC-induced cell death", "setting": "[1]; 293T cells", "value": "Neither the administration of the caspase inhibitor BAF at 50 mM (A) nor the cotransfection of xiap (B) or Bcl-xL (C) were effective"},
      {"measurement": "Internucleosomal DNA fragmentation", "setting": "[3]", "value": "completely inhibited"},
      {"measurement": "inhibition of caspase-7 induced cell death", "setting": "[4]", "value": "completely"}
    ]},
    {"smiles": "C[C@@H]1C[C@@H]([C@H](O)CC2CC(=O)NC(=O)C2)C(=O)[C@@H](C)C1", "note": "[Cycloheximide, cycloheximide]", "values": [
      {"measurement": "Inhibition by: Paraptosis", "setting": "[1]; Table 1, 293T cell death induced by IGFIR-IC", "value": 0},
      {"measurement": "IGFIR-induced cell death following drug treatment", "setting": "[1]", "value": "dose-dependent block"},
      {"measurement": "Inhibition by: Apoptosis", "setting": "Apoptosis", "value": "Sometimes"}
    ]},
    {"smiles": "Cc1c2oc3c(C)ccc(C(=O)N[C@@H]4C(=O)N[C@H](C(C)C)C(=O)N5CCC[C@H]5C(=O)N(C)CC(=O)N(C)[C@@H](C(C)C)C(=O)O[C@@H]4C)c3nc-2c(C(=O)N[C@@H]2C(=O)N[C@H](C(C)C)C(=O)N3CCC[C@H]3C(=O)N(C)CC(=O)N(C)[C@@H](C(C)C)C(=O)O[C@@H]2C)c(N)c1=O", "note": "[Actinomycin D] (I: T[dV]P[Sar][NMeV] / II: T[dV]P[Sar][NMeV]; ester I:1-I:C, II:1-II:C; linker I:N-II:N via Actinocin(9to1))", "values": [
      {"measurement": "IGFIR-induced cell death following drug treatment", "setting": "[1]", "value": "restored cell viability to control levels"},
      {"measurement": "Inhibition by: Apoptosis", "setting": "Apoptosis", "value": "Sometimes"}
    ]}
  ]
}
